Laboratory results from patent US20080132536A1, “PYRAZOLO [3,4-B] PYRIDINE COMPOUNDS, AND THEIR USE AS PDE4 INHIBITORS” (Glaxo Group Limited, priority 2003, published 2008).

target: T1, PDE4B (human recombinant) (Homo sapiens, UniProt Q07343); assay: PDE4B inhibition, radioactive SPA and/or IMAP fluorescence polarisation (FP) assay; type: biochemical; details: comparators: Examples 6, 7, 29, 26, 64, 126, 124, 170, 177
T1 construct: made in house
Text: Human recombinant PDE4B, in particular the 2B splice variant thereof (HSPDE4B2B), is disclosed in WO 94/20079 and also M. M. McLaughlin et al., “A low Km, rolipram-sensitive, cAMP-specific phosphodiesterase from human brain: cloning and expression of cDNA, biochemical characterisation of recombinant protein, and tissue distribution of mRNA”, J. Biol. Chem., 1993, 268, 6470-6476. For example, in Example 1 of WO 94/20079, human recombinant PDE4B is described as being expressed in the PDE-deficient yeast Saccharomyces cerevisiae strain GL62, e.g. after induction by addition of 150 uM CuSO4, and 100,000×g supernatant fractions of yeast cell lysates are described for use in the harvesting of PDE4B enzyme.
The ability of compounds to inhibit catalytic activity at PDE4B or 4D (human recombinant), PDE3 (from bovine aorta), PDE5 (human recombinant) or PDE6 (from bovine retina) can optionally be determined by Scintillation Proximity Assay (SPA) in 96-well format.
Test compounds (as a solution in DMSO, preferably about 2 microlitre (ul) volume of DMSO solution) are preincubated at ambient temperature (room temperature, e.g. 19-23° C.) in Wallac Isoplates (code 1450-514) with PDE enzyme in 50 mM Tris-HCl buffer pH 7.5, 8.3 mM MgCl2, 1.7 mM EGTA, 0.05% (w/v) bovine serum albumin for 10-30 minutes (usually 30 minutes). The enzyme concentration is adjusted so that no more than 20% hydrolysis of the substrate defined below occurs in control wells without compound, during the incubation. For the PDE3, PDE4B and PDE4D assays, [5′,8-3H]Adenosine 3′,5′-cyclic phosphate (Amersham Pharmacia Biotech, code TRK.559; or Amersham Biosciences UK Ltd, Pollards Wood, Chalfont St Giles, Buckinghamshire HP8 4SP, UK) is added to give 0.05 uCi per well and about 10 nM final concentration. For the PDE5 and PDE6 assays, [8-^3H]Guanosine 3′,5′-cyclic phosphate (Amersham Pharmacia Biotech, code TRK.392) is added to give 0.05 uCi per well and about 36 nM final concentration. Plates containing assay mixture, preferably approx. 100 ul volume of assay mixture, are mixed on an orbital shaker for 5 minutes and incubated at ambient temperature for 1 hour. Phosphodiesterase SPA beads (Amersham Pharmacia Biotech, code RPNQ 0150) are added (about 1 mg per well) to terminate the assay. Plates are sealed and shaken and allowed to stand at ambient temperature for 35 minutes to 1 hour (preferably 35 minutes) to allow the beads to settle. Bound radioactive product is measured using a WALLAC TRILUX 1450 Microbeta scintillation counter. For inhibition curves, 10 concentrations (1.5 nM-30 uM) of each compound are assayed. Curves are analysed using ActivityBase and XLfit (ID Business Solutions Limited, 2 Ocean Court, Surrey Research Park, Guildford, Surrey GU2 7QB, United Kingdom) Results are expressed as pIC50 values.
The ability of compounds to inhibit catalytic activity at PDE4B (human recombinant) or PDE4D (human recombinant) can optionally be determined by IMAP Fluorescence Polarisation (FP) assay (IMAP Explorer kit, available from Molecular Devices Corporation, Sunnydale, Calif., USA; Molecular Devices code: R8062) in 384-well format.
The IMAP FP assay is able to measure PDE activity in an homogenous, non-radioactive assay format. The FP assay uses the ability of immobilised trivalent metal cations, coated onto nanoparticles (tiny beads), to bind the phosphate group of Fl-AMP that is produced on the hydrolysis of fluorescein-labelled (Fl) cyclic adenosine mono-phosphate (Fl-cAMP) to the non-cyclic Fl-AMP form. […] Binding of Fl-AMP product to the beads (coated with the immobilised trivalent cations) slows the rotation of the bound Fl-AMP and leads to an increase in the fluorescence polarisation ratio of parallel to perpendicular light. Inhibition of the PDE reduces/inhibits this signal increase. […]

T1 sequence (Q07343 1-564 isoform Q07343-2): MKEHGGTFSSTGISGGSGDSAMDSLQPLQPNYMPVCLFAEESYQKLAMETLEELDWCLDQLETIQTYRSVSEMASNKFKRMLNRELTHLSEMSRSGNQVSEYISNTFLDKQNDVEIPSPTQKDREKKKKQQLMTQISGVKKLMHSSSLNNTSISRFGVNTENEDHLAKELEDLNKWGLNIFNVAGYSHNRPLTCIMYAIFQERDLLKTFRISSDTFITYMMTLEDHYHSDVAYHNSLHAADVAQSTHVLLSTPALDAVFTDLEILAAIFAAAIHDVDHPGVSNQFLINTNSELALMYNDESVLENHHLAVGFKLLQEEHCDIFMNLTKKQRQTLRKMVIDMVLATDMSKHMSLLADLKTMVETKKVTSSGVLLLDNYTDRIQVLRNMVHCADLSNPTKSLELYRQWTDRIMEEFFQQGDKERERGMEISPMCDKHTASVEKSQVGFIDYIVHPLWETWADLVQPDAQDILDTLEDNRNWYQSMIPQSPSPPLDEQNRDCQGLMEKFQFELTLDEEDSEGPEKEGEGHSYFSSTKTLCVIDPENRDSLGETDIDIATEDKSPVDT

Row | SMILES | PDE4B inhibitory activity compared with the comparable Example of opposite stereochemistry at the CR4R5 (benzylic) carbon atom
1 | CCn1ncc2c(NC3CCCCC3)c(C(=O)N[C@H](COC)c3ccccc3)cnc21 [Example 129, 4-(cyclohexylamino)-1-ethyl-N-[(1S)-2-(methyloxy)-1-phenylethyl]-1H-pyrazolo[3,4-b]pyridine-5-carboxamide] | greater PDE4B inhibitory activity
2 | CC[C@@H](NC(=O)c1cnc2c(cnn2CC)c1NC1CCN(C(C)=O)CC1)c1ccccc1 [Example 174, 4-[(1-acetyl-4-piperidinyl)amino]-1-ethyl-N-[(1R)-1-phenylpropyl]-1H-pyrazolo[3,4-b]pyridine-5-carboxamide] | greater PDE4B inhibitory activity

same assay, conditions: one reading or average of several (ca. 2-6) readings; SPA and/or FP assay; range given for a group of Examples; read-out: PDE4B pIC50 (±about 0.5) (converted)

Row | SMILES | IC50
3 | CCn1ncc2c(NC3CCC(C(N)=O)CC3)c(C(=O)N[C@H](C)c3ccc(Br)cc3)cnc21 (mixture of isomers) [Example 351, 4-{[4-(aminocarbonyl)cyclohexyl]amino}-N-[(1R)-1-(4-bromophenyl)ethyl]-1-ethyl-1H-pyrazolo[3,4-b]pyridine-5-carboxamide] | 0.501 to 3.16 nM
4 | CCn1ncc2c(NC3CCCC(O)C3)c(C(=O)NC(C)c3ccc(C)cc3)cnc21 (mixture of isomers) [Example 283, 1-ethyl-4-{[(1S,3R)-and/or (1R,3S)-3-hydroxycyclohexyl]amino}-N-[(1R)-1-(4-methylphenyl)ethyl]-1H-pyrazolo[3,4-b]pyridine-5-carboxamide] | 0.1 to 2 nM
5 | CCn1ncc2c(N[C@H]3CC[C@@H](C(N)=O)CC3)c(C(=O)N[C@H](C)c3ccccc3)cnc21 [Example 354, 4-{[cis-4-(aminocarbonyl)cyclohexyl]amino}-1-ethyl-N-[(1R)-1-phenylethyl]-1H-pyrazolo[3,4-b]pyridine-5-carboxamide] | 0.501 to 3.16 nM
6 | CCn1ncc2c(NC3CCOCC3)c(C(=O)N[C@H](C)c3ccc(C)cc3)cnc21 [Example 73, 1-ethyl-N-[(1R)-1-(4-methylphenyl)ethyl]-4-(tetrahydro-2H-pyran-4-ylamino)-1H-pyrazolo[3,4-b]pyridine-5-carboxamide] | 0.1 to 2 nM
7 | CCC(NC(=O)c1cnc2c(cnn2CC)c1NC1CCC(C(N)=O)CC1)c1ccc(F)cc1 (mixture of isomers) [Example 350, 4-{[4-(aminocarbonyl)cyclohexyl]amino}-1-ethyl-N-[1-(4-fluorophenyl)propyl]-1H-pyrazolo[3,4-b]pyridine-5-carboxamide] | 0.501 to 3.16 nM
8 | CCn1ncc2c(NC3CCC(C(N)=O)CC3)c(C(=O)NC(C)c3ccc(OC(F)F)cc3)cnc21 (mixture of isomers) [Example 348, 4-{[4-(aminocarbonyl)cyclohexyl]amino}-N-(1-{4-[(difluoromethyl)oxy]phenyl}ethyl)-1-ethyl-1H-pyrazolo[3,4-b]pyridine-5-carboxamide] | 0.501 to 3.16 nM
9 | CCC(NC(=O)c1cnc2c(cnn2CC)c1NC1CCC(=O)CC1)c1ccc(C)cc1C (stereo not shown) [Example 210, N-[1-(2,4-dimethylphenyl)propyl]-1-ethyl-4-[(4-oxocyclohexyl)amino]-1H-pyrazolo[3,4-b]pyridine-5-carboxamide] | 0.1 to 2 nM
10 | CCn1ncc2c(NC3CCOCC3)c(C(=O)N[C@@H](CO)c3ccccc3)cnc21 [Example 26, 1-ethyl-N-[(1R)-2-hydroxy-1-phenylethyl]-4-(tetrahydro-2H-pyran-4-ylamino)-1H-pyrazolo[3,4-b]pyridine-5-carboxamide] | 31.6 to 70.8 nM
11 | CCn1ncc2c(NC3CCC(C(N)=O)CC3)c(C(=O)NC(C)c3ccc(Cl)cc3)cnc21 (mixture of isomers) [Example 349, 4-{[4-(aminocarbonyl)cyclohexyl]amino}-N-[1-(4-chlorophenyl)ethyl]-1-ethyl-1H-pyrazolo[3,4-b]pyridine-5-carboxamide] | 0.501 to 3.16 nM
12 | CCn1ncc2c(NC3CCOCC3)c(C(=O)N[C@@H](C(N)=O)c3ccccc3)cnc21 [Example 25, N-[(1R)-2-amino-2-oxo-1-phenylethyl]-1-ethyl-4-(tetrahydro-2H-pyran-4-ylamino)-1H-pyrazolo[3,4-b]pyridine-5-carboxamide] | 31.6 to 70.8 nM
13 | CCC(NC(=O)c1cnc2c(cnn2CC)c1NC1CCC(=NO)CC1)c1ccc(C)c(C)c1 (stereo not shown) [Example 261, N-[1-(3,4-dimethylphenyl)propyl]-1-ethyl-4-{[4-(hydroxyimino)cyclohexyl]amino}-1H-pyrazolo[3,4-b]pyridine-5-carboxamide] | 0.1 to 2 nM
14 | CCn1ncc2c(NC3CCOCC3)c(C(=O)NC(CCO)c3ccccc3)cnc21 (stereo not shown) [Example 13, 1-ethyl-N-(3-hydroxy-1-phenylpropyl)-4-(tetrahydro-2H-pyran-4-ylamino)-1H-pyrazolo[3,4-b]pyridine-5-carboxamide] | 0.794 to 5.01 nM
15 | CCn1ncc2c(N[C@H]3CC[C@H](C(N)=O)CC3)c(C(=O)N[C@H](C)c3ccccc3)cnc21 [Example 358, 4-{[trans-4-(aminocarbonyl)cyclohexyl]amino}-1-ethyl-N-[(1R)-1-phenylethyl]-1H-pyrazolo[3,4-b]pyridine-5-carboxamide] | 39.8 to 158 nM
16 | CCC(NC(=O)c1cnc2c(cnn2CC)c1NC1CCC(C(N)=O)CC1)c1ccc(Cl)cc1 (mixture of isomers) [Example 346, 4-{[4-(aminocarbonyl)cyclohexyl]amino}-N-[1-(4-chlorophenyl)propyl]-1-ethyl-1H-pyrazolo[3,4-b]pyridine-5-carboxamide] | 0.501 to 3.16 nM
17 | CC[C@@H](NC(=O)c1cnc2c(cnn2CC)c1NC1CCC(C(N)=O)CC1)c1ccccc1 (mixture of isomers) [Example 347, 4-{[4-(aminocarbonyl)cyclohexyl]amino}-1-ethyl-N-[(1R)-1-phenylpropyl]-1H-pyrazolo[3,4-b]pyridine-5-carboxamide] | 0.501 to 3.16 nM
18 | CCC(NC(=O)c1cnc2c(cnn2CC)c1NC1CCOCC1)c1ccc(C)cc1C (single isomer, unassigned; enantiomer 2) [Example 304, N-[1-(2,4-dimethylphenyl)propyl]-1-ethyl-4-(tetrahydro-2H-pyran-4-ylamino)-1H-pyrazolo[3,4-b]pyridine-5-carboxamide (Enantiomer 2)] | 0.1 to 2 nM
19 | CCC(NC(=O)c1cnc2c(cnn2CC)c1NC1CCOCC1)c1ccc(C)cc1C (stereo not shown) [Example 98, N-[1-(2,4-dimethylphenyl)propyl]-1-ethyl-4-(tetrahydro-2H-pyran-4-ylamino)-1H-pyrazolo[3,4-b]pyridine-5-carboxamide] | 0.1 to 2 nM
20 | CCn1ncc2c(N[C@H]3CC[C@H](C(N)=O)CC3)c(C(=O)N[C@H](C)c3ccc(Br)cc3)cnc21 [Example 359, 4-{[trans-4-(aminocarbonyl)cyclohexyl]amino}-N-[(1R)-1-(4-bromophenyl)ethyl]-1-ethyl-1H-pyrazolo[3,4-b]pyridine-5-carboxamide] | 39.8 to 158 nM
21 | CC[C@@H](NC(=O)c1cnc2c(cnn2CC)c1N[C@H]1CC[C@@H](C(N)=O)CC1)c1ccc(C)cc1C [Example 352, 4-{[cis-4-(aminocarbonyl)cyclohexyl]amino}-N-[(1R)-1-(2,4-dimethylphenyl)propyl]-1-ethyl-1H-pyrazolo[3,4-b]pyridine-5-carboxamide] | 0.501 to 3.16 nM
22 | CCn1ncc2c(NC3CCCCC3)c(C(=O)N[C@H](C)c3ccc(C)cc3)cnc21 [Example 139, 4-(cyclohexylamino)-1-ethyl-N-[(1R)-1-(4-methylphenyl)ethyl]-1H-pyrazolo[3,4-b]pyridine-5-carboxamide] | 0.1 to 2 nM
